This passage reports GI50 and TGI results from PubChem BioAssay (NCI).

Among the test systems are HOP-62 NSCLC; NCI-H23 lung; K-562 leukemia; SNB-19 CNS; EKVX NSCLC; IGROV1 ovarian; UACC-257 melanoma; SN12C renal; XF 498 CNS; KM20L2 colon.
Assay in all cases: NCI anticancer screen, dose series, 48 h

SMILES strings stand for the structures.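 Each compound was tested at five concentrations against cells in 96-well plates for 48 hours. Abbreviation: GI50, concentration required for 50% inhibition of growth. TGI is the concentration that stops growth completely.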 Bounds are passed on as bounds.

In the case of `C=C1CCC2C3(C)COC(c4ccccc4Br)OC3CCC2(C)C1C/C=C1/C(=O)OCC1OC(C)=O` (stereo not given), the GI50 in the test on HOP-62 NSCLC is 1.94 µM; in the test on NCI-H23 lung it was 1.59 µM; in the test on K-562 leukemia, 0.396 µM; in the test with SNB-19 CNS, 2.25 µM; in the test with EKVX NSCLC, 2.55 µM; with IGROV1 ovarian, 1.15 µM. For the same compound, the GI50 in the test with UACC-257 melanoma was 1.57 µM; in the test on SN12C renal, 1.36 µM. Also, the TGI in the test on HOP-62 NSCLC came to 3.46 µM; in the test on NCI-H23 lung it was 3.17 µM; with K-562 leukemia, 4.4 µM; in the test with SNB-19 CNS, 5.85 µM; in the test on EKVX NSCLC, 10.1 µM; in the test with IGROV1 ovarian, 2.48 µM. Also, the TGI in the test with UACC-257 melanoma was found to be 2.99 µM; in the test with SN12C renal, 3.28 µM.
As for `CC1(C)CC[C@]2(C(=O)N3CCOCC3)CC[C@]3(C)C(=CC[C@@H]4[C@@]5(C)C/C(=C/c6ccncc6)C(=O)C(C)(C)[C@@H]5CC[C@]43C)[C@@H]2C1`, the GI50 was 1.76 µM in the test with HOP-62 NSCLC; 2.41 µM in the test with NCI-H23 lung; 0.637 µM with K-562 leukemia; 6.93 µM in the test with SNB-19 CNS; 2.87 µM in the test on EKVX NSCLC; 3.09 µM in the test on IGROV1 ovarian. The GI50 in the test on UACC-257 melanoma is 3.68 µM; with SN12C renal it was 2.37 µM. The TGI is 6.73 µM with HOP-62 NSCLC; above 100 µM with NCI-H23 lung; above 100 µM in the test with K-562 leukemia; 27.7 µM in the test with SNB-19 CNS; above 100 µM with EKVX NSCLC; above 100 µM in the test on IGROV1 ovarian. Further, the TGI with UACC-257 melanoma is above 100 µM; in the test on SN12C renal, 20.6 µM.
`CSC1(SC2=NCCN2)SC2(NCCN2)S1`: the TGI was found to be 34.4 µM in the test on HOP-62 NSCLC; 33.4 µM with NCI-H23 lung; 81.2 µM in the test on K-562 leukemia; 41.9 µM in the test with SNB-19 CNS; 40.5 µM in the test on EKVX NSCLC; 35.7 µM in the test on IGROV1 ovarian. Besides, the TGI in the test with UACC-257 melanoma came to 46.6 µM; in the test with SN12C renal, 41.4 µM.
With `COc1cc(C2C3=C(COC3=O)Nc3cc4c(cc32)CCC4)cc2c1OCO2` (stereo not given), the GI50 is 0.0471 µM in the test with HOP-62 NSCLC; 0.0427 µM in the test on NCI-H23 lung; 0.0375 µM with K-562 leukemia; 0.0724 µM in the test with SNB-19 CNS; 0.486 µM in the test with EKVX NSCLC; 0.0617 µM with IGROV1 ovarian. Further, the GI50 is 1.13 µM in the test on UACC-257 melanoma and 0.0595 µM with SN12C renal. Further, the TGI came out at 12 µM with HOP-62 NSCLC; 3.04 µM with NCI-H23 lung; 12.3 µM in the test with K-562 leukemia; 23.3 µM in the test on SNB-19 CNS; 43.3 µM with EKVX NSCLC; 17.1 µM with IGROV1 ovarian. The TGI in the test on UACC-257 melanoma is 63.3 µM; in the test with SN12C renal, 20.2 µM.
Take `O=C(COc1cccc(/C=C2\COc3ccc(Cl)cc3C2=O)c1)c1ccc(Cl)cc1`: the GI50 is 14.3 µM with HOP-62 NSCLC; 13.4 µM in the test on NCI-H23 lung; 2.67 µM in the test on K-562 leukemia; 14.5 µM with SNB-19 CNS; 12.5 µM in the test on EKVX NSCLC; 0.54 µM with IGROV1 ovarian. Besides, the figures for the GI50 with UACC-257 melanoma and in the test on SN12C renal were 18.5 µM and 13.7 µM, respectively. The TGI with HOP-62 NSCLC is 27.7 µM; in the test on NCI-H23 lung, 26.4 µM; in the test with K-562 leukemia, above 100 µM; in the test on SNB-19 CNS it was 27.7 µM; in the test on EKVX NSCLC, 25.8 µM; in the test with IGROV1 ovarian, 3.7 µM. Also, the values for the TGI in the test with UACC-257 melanoma and in the test on SN12C renal were 33.4 µM and 28.5 µM, respectively.
As to `N=C(N)c1ccc(COc2ccccc2OCc2ccc(C(=N)N)cc2)cc1`, the GI50 is 18.9 µM with HOP-62 NSCLC; 49.4 µM in the test with NCI-H23 lung; 34.8 µM in the test on K-562 leukemia; 41.4 µM in the test with SNB-19 CNS; 38.5 µM with EKVX NSCLC; 61.6 µM in the test with IGROV1 ovarian. The values for the GI50 with UACC-257 melanoma and with SN12C renal were above 100 µM and 6.6 µM, respectively. Also, the TGI with HOP-62 NSCLC was 48.9 µM; in the test on NCI-H23 lung, above 100 µM; in the test on K-562 leukemia, above 100 µM; with SNB-19 CNS, above 100 µM; in the test with EKVX NSCLC, above 100 µM; with IGROV1 ovarian, above 100 µM. Moreover, the TGI is above 100 µM in the test with UACC-257 melanoma and 89.3 µM with SN12C renal.
In the case of `O=C(CN1CCN(c2ccccc2)CC1)N1CCN(c2nnc(-c3ccc(Cl)cc3)c(-c3ccc(Cl)cc3)n2)CC1`, the GI50 was 20.5 µM with HOP-62 NSCLC; 23.4 µM in the test with NCI-H23 lung; 3.32 µM in the test with K-562 leukemia; 37.2 µM with SNB-19 CNS; 21.6 µM in the test with EKVX NSCLC; 6.5 µM in the test with IGROV1 ovarian. Moreover, the GI50 in the test with UACC-257 melanoma is 14.7 µM; in the test with SN12C renal it was 13 µM. The TGI in the test on HOP-62 NSCLC is 75.9 µM; in the test with NCI-H23 lung, above 100 µM; in the test on K-562 leukemia, above 100 µM; with SNB-19 CNS it was above 100 µM; with EKVX NSCLC, above 100 µM; with IGROV1 ovarian it was 40.8 µM. In addition, the TGI with UACC-257 melanoma and in the test on SN12C renal was above 100 µM throughout.
Take `CCN(CC)CC(C(=O)Nc1c(C)cccc1C)/C(C)=N\NC(=O)c1ccncc1` (stereo not given): the TGI in the test with HOP-62 NSCLC, in the test on XF 498 CNS, with NCI-H23 lung, in the test on SNB-19 CNS, with IGROV1 ovarian and with UACC-257 melanoma was above 100 µM throughout. The TGI in the test on SN12C renal was above 100 µM.
As for `CC(C)c1ccc(Nc2nccc(-c3cnn4ncccc34)n2)cc1`, the GI50 in the test with HOP-62 NSCLC is 0.563 µM; with NCI-H23 lung, 0.483 µM; in the test with K-562 leukemia, 1.19 µM; with SNB-19 CNS, 0.842 µM; in the test with EKVX NSCLC, 0.64 µM; in the test on IGROV1 ovarian, 0.502 µM. Besides, the GI50 in the test on UACC-257 melanoma is 0.563 µM; in the test with SN12C renal, 0.66 µM. Also, the TGI in the test on HOP-62 NSCLC is 2.59 µM; in the test with NCI-H23 lung it was above 7 µM; with K-562 leukemia it was above 25 µM; in the test on SNB-19 CNS, above 25 µM; with EKVX NSCLC, 10.2 µM; with IGROV1 ovarian, above 19.5 µM. Besides, the TGI in the test with UACC-257 melanoma was 1.6 µM; in the test on SN12C renal it was above 17.9 µM.
As for `CCC1CCc2c(OC)ccc(OCC(=O)O)c2C1=O` (stereo not given), the TGI in the test on HOP-62 NSCLC, with XF 498 CNS, with NCI-H23 lung, in the test on K-562 leukemia, in the test with SNB-19 CNS and in the test on EKVX NSCLC was above 100 µM in each case. Besides, the TGI in the test with IGROV1 ovarian, in the test on UACC-257 melanoma and in the test with SN12C renal was above 100 µM each time.
For the compound `CS/C(=N\c1nccs1)NC(=O)c1cccc(Cl)c1`, the TGI with HOP-62 NSCLC, in the test on NCI-H23 lung, with K-562 leukemia, in the test on KM20L2 colon, with SNB-19 CNS and in the test with EKVX NSCLC was above 100 µM each time. Moreover, the TGI in the test on IGROV1 ovarian, with UACC-257 melanoma and in the test on SN12C renal was above 100 µM throughout.
